According to article PMC3267170, “Pharmacological Modulation of Diacylglycerol-Sensitive TRPC3/6/7 Channels” (Current Pharmaceutical Biotechnology, 2011):
pIC50: −log10 of the molar value. Where two headings read alike, the source gives them in different places. Values belong to the compound of their own block, whether it stands above or below them.

Columns and labels:
Drosophila TRPγ = target: T1, Drosophila TRPγ (Drosophila melanogaster, UniProt Q9VJJ7); test: FLIPR calcium entry in TRPγ-expressing cells stimulated by eicosatetraynoic acid; assay type: cell-based; conditions: fluo-4-loaded cells, eicosatetraynoic acid (20 µM), FLIPR Tetra; read-out: IC50 to block Drosophila TRPγ
T1 construct: expressed in transfected cells
T1 sequence (Q9VJJ7 1-1128): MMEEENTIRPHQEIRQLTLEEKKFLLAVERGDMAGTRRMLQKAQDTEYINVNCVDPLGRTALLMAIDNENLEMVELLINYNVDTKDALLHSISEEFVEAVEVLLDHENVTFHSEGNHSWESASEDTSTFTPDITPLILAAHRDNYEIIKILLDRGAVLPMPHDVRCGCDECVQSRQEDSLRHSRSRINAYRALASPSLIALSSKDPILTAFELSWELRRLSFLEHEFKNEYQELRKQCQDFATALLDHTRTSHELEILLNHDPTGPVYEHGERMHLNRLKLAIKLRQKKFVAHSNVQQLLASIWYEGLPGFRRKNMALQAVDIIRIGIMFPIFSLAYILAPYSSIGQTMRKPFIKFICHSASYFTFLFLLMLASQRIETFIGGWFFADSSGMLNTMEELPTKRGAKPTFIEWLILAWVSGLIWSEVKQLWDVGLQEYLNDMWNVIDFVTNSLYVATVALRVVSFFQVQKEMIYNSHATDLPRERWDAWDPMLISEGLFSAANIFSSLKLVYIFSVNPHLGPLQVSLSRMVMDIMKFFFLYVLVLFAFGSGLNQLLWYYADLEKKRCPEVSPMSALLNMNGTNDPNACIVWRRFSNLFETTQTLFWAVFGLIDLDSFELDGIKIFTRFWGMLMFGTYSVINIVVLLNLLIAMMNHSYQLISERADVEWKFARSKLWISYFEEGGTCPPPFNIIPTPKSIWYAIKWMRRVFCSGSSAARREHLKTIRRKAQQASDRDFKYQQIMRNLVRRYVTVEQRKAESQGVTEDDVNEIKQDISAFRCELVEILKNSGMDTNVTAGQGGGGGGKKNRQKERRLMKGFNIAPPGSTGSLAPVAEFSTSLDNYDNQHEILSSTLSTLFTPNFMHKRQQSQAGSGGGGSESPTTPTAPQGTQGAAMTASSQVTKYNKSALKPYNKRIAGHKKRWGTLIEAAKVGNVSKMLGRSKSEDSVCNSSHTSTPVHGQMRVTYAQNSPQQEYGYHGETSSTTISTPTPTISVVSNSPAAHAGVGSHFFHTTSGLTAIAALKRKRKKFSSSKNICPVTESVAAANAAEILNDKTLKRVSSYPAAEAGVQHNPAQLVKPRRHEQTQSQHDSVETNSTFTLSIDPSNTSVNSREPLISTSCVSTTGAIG
Experimental: (§1) Using this approach, we tested several other structurally related compounds to get a first view on the structure-function relationships of TRPC6.
(§2) Calcium entry was measured using FLIPR^Tetra and data analysed as described in Jörs et al.. The data were calculated from one experiment of at least three experiments performed in quadruplicates per concentration and TRP channel.

TRPV4 = target: T2, TRPV4 (Homo sapiens, UniProt Q9HBA0); test: FLIPR calcium entry in TRPV4-expressing cells stimulated by 4α-phorbol-didecanoate; assay type: cell-based; conditions: fluo-4-loaded cells, 4α-phorbol-didecanoate (5 µM), FLIPR Tetra; read-out: IC50 to block TRPV4
T2 construct: expressed in transfected cells
T2 sequence (Q9HBA0 whole entry, species assumed): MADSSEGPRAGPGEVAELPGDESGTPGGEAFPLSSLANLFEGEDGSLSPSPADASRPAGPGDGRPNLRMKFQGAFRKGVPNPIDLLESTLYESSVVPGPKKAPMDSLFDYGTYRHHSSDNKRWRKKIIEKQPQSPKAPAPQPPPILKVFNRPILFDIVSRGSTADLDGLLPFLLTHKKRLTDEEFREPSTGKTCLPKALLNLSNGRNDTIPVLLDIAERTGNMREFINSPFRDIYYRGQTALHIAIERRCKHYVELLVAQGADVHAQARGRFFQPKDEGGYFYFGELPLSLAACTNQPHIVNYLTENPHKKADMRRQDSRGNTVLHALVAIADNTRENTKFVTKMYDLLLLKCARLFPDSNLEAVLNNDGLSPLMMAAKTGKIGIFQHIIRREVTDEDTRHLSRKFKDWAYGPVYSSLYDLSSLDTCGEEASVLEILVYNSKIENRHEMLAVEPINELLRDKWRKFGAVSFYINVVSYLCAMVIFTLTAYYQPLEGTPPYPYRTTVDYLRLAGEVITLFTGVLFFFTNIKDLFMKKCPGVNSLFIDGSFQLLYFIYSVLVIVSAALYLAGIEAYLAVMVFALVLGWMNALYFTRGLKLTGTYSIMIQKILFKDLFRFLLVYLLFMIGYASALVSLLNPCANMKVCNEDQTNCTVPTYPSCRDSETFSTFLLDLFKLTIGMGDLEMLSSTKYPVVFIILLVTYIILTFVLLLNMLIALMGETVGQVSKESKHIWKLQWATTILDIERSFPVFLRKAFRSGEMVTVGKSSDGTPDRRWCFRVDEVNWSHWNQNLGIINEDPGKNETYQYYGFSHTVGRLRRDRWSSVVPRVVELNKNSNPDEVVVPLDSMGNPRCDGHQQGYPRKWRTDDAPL
Experimental: as §1, §2

TRPM3 = target: T3, TRPM3 (Homo sapiens, UniProt Q9HCF6); test: FLIPR calcium entry in TRPM3-expressing cells stimulated by pregnenolone sulphate; assay type: cell-based; conditions: fluo-4-loaded cells, pregnenolone sulphate (35 µM), FLIPR Tetra; read-out: IC50 to block TRPM3
T3 construct: expressed in transfected cells
T3 sequence (Q9HCF6 whole entry, species assumed): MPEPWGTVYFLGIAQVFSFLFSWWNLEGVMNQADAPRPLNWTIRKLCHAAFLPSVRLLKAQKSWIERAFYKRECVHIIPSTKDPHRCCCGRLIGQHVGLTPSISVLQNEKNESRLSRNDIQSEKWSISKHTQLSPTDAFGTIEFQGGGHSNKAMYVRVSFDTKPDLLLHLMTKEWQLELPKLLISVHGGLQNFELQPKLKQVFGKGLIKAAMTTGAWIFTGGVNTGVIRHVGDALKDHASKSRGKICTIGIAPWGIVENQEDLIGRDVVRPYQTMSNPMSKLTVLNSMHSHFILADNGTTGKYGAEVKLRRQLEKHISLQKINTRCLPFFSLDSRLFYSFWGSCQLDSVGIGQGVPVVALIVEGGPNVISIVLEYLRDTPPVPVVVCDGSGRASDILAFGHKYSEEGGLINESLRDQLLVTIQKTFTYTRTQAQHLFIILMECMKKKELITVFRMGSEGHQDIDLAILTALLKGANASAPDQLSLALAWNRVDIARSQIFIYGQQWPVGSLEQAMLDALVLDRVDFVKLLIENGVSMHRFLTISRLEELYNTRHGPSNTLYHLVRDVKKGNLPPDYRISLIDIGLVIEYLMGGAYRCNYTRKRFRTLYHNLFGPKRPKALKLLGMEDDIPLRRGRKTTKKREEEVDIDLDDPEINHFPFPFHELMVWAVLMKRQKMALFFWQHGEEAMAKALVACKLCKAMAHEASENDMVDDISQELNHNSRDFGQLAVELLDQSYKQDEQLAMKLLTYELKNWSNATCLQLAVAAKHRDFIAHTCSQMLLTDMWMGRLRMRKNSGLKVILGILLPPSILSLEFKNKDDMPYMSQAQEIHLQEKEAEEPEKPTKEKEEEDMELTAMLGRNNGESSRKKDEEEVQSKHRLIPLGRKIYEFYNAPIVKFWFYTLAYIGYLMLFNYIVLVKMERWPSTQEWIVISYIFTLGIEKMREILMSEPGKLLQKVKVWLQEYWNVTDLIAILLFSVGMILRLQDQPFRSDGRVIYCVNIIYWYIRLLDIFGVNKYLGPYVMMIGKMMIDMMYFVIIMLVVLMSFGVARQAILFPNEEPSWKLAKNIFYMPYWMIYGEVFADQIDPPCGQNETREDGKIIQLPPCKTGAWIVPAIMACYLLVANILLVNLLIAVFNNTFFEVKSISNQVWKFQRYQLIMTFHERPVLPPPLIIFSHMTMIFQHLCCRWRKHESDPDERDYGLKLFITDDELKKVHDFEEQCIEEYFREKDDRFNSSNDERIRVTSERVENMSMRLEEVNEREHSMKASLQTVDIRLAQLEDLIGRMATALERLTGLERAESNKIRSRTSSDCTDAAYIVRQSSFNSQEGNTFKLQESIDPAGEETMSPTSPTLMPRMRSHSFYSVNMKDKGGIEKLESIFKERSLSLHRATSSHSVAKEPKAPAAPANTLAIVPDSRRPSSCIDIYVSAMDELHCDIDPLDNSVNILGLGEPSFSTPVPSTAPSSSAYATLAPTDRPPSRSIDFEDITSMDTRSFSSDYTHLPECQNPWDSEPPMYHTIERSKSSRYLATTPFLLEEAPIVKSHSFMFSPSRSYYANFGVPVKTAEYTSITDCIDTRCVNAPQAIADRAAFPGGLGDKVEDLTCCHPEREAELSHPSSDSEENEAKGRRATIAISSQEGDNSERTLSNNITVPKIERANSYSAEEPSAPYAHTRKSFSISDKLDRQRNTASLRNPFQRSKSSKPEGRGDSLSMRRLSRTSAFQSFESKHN
Experimental: as §1, §2

TRPC3 [1] = tested on: TRPC3; parameters: method as in PMID 9368034, PMID 10970899; conditions: read-out: half-maximal concentration necessary for TRPC3 inhibition; cited from earlier work
TRPC6 [2] = target: T4, TRPC6 (Homo sapiens, UniProt Q9Y210); parameters: method as in PMID 9368034, PMID 10970899; conditions: read-out: concentration needed to block TRPC6; cited from earlier work
T4 construct: expressed in transfected cells
T4 sequence (Q9Y210 1-931): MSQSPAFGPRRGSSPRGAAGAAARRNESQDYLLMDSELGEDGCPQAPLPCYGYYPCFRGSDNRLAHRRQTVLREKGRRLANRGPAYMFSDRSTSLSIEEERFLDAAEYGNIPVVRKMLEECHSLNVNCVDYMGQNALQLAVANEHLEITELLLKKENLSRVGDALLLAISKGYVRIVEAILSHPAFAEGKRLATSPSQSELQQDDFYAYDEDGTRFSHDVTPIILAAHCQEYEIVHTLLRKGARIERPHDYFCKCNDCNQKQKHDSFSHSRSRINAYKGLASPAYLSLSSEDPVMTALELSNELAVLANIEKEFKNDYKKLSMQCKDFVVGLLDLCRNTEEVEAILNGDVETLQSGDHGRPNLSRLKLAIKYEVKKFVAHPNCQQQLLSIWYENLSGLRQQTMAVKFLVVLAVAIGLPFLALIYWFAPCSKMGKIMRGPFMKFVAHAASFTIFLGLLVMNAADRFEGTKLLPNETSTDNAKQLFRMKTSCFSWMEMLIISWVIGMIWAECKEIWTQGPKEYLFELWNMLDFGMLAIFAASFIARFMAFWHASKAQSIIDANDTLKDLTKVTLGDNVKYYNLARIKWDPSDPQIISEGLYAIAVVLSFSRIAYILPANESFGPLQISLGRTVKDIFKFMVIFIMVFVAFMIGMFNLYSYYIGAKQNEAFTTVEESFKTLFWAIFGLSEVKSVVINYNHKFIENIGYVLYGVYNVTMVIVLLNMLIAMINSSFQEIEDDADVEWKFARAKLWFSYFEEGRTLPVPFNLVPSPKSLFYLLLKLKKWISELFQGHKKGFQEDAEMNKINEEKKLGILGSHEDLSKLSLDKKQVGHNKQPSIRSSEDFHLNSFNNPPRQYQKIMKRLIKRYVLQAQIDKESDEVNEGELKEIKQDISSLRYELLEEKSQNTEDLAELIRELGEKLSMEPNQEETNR

TRPC6 [3] = target: T4, TRPC6; test: FLIPR calcium entry in TRPC6-expressing cells stimulated by hyperforin; assay type: cell-based; conditions: read-out: IC50, hyperforin-induced TRPC6-mediated calcium entry (Fig. 3)
Experimental: as §1
A) The chemical structures of the tested compound is shown. […] Calcium entry was measured using FLIPR^Tetra and data analysed as described in Jörs et al.. The data were calculated from one experiment of at least three experiments performed in quadruplicates per concentration and TRP channel.
as §2

[4] = target: receptor-mediated calcium entry; parameters: method as in PMID 2173565; conditions: platelets, neutrophils and endothelial cells; read-out: IC50, block of ADP-induced calcium entry; cited from earlier work
TRPC3 [5] = tested on: TRPC3; parameters: method as in PMID 12700192; conditions: 100 µM; human myometrial cells; cited from earlier work
TRPC6 [6] = target: T4, TRPC6; parameters: method as in earlier work; conditions: 100 µM SKF-96365; ref 12 (Boulay et al.); cited from earlier work

- pIC50 (Drosophila TRPγ): 5.30
- pIC50 (TRPV4): 4.19
- pIC50 (TRPM3): 4.82
Compound: NCCCCCCNS(=O)(=O)c1cccc2c(Cl)cccc12 [W-7, N-(6-Aminohexyl)-5-chloro-1-naphthalenesulfonamide]

Compound: [Cl][La]([Cl])[Cl] [lanthanum chloride]
- pIC50 (TRPC3 [1]): 5.40
- pIC50 (TRPC6 [2]): < 4.30

- pIC50 (TRPC6 [3]): 4.54
Compound: NCCCCCCCCCCNS(=O)(=O)c1cccc2c(Cl)cccc12 [W-7 decyl]

Compound: COc1ccc(CCCOC(Cn2ccnc2)c2ccc(OC)cc2)cc1.Cl (stereo not drawn) [SKF-96365, 1-{β[3-(4-methoxyphenyl)propoxy]-4-methoxyphenethyl}-1H-imidazole hydrochloride]
- pIC50 [4]: ~5.00
- block of endogenously expressed TRPC3 (TRPC3 [5]): effective in blocking
- block of heterologously expressed TRPC6 (TRPC6 [6]): complete block

- pIC50 (TRPC6 [3]): 4.46
Compound: NCCCCCCNS(=O)(=O)c1ccc2c(Cl)cccc2c1 [W-7 isomer, N-(6-Aminohexyl)-5-chloro-2-naphthalenesulfonamide]

- pIC50 (TRPC6 [3]): 4.70
Compound: NCCCCCCNS(=O)(=O)c1cccc2ccccc12 [W-5, N-(6-Aminohexyl)-1-naphthalenesulfonamide]

- pIC50 (TRPC6 [3]): 4.07
Compound: NCCCCCCCCNS(=O)(=O)c1cccc2c(I)cccc12 [J-8, (N-8-Aminooctyl)-5-iodo-1-naphthalenesulfonamide]

- pIC50 (TRPC6 [3]): 4.44
Compound: O=S(=O)(c1cccc2c(Cl)cccc12)N1CCCNCC1 [ML-9, 1-(5-Chloronaphthalene-1-sulfonyl)-1H-hexahydro-1,4-diazepine]
